ChEMBL document CHEMBL4477256, “Newly synthesized bis-benzimidazole compound 8 induces apoptosis, autophagy and reactive oxygen species generation in HeLa cells” (Bioorg Med Chem Lett, 2016)
Calls of active or inactive are those of the source. The calls are words filed in the database; no cut-off is given here.

Columns and labels:
Assay type in all cases: functional, cell-based
HeLa [1] = experiment: Induction of apoptosis in human HeLa cells assessed as increase in subG0/G1 ratio in presence of NAC by PI staining-based flow cytometry
HeLa [2] = experiment: Induction of ROS generation in human HeLa cells at 10 to 20 uM after 24 hrs by H2DCF-DA staining-based flow cytometry
HeLa [3] = experiment: Induction of apoptosis in human HeLa cells assessed as reduction in mitochondrial membrane potential at 5 to 20 uM after 24 hrs by Rhodamine123 staining-based flow cytometry
HeLa [4] = experiment: Induction of ROS generation in human HeLa cells at 10 uM in presence of NAC by H2DCF-DA staining-based flow cytometry
HeLa [5] = experiment: Upregulation of beclin 1 in human HeLa cells at 5 to 20 uM after 24 hrs in presence of 3MA by Western blot analysis
HeLa [6] = experiment: Induction of apoptosis in human HeLa cells assessed as nuclear fragmentation at 10 uM after 24 hrs by AO staining-based microscopic analysis
HeLa [7] = experiment: Induction of apoptosis in human HeLa cells assessed as chromatin condensation at 10 uM after 24 hrs by AO staining-based microscopic analysis
HeLa [8] = experiment: Induction ROS generation in human HeLa cells in presence of ZVAD by flow cytometry
HeLa [9] = experiment: Cytotoxicity against human HeLa cells assessed as inhibition of cell growth at 5 to 20 uM by MTT assay; conditions: TDE = time-dependent effect
HeLa [10] = experiment: Induction of apoptosis in human HeLa cells assessed as formation of apoptotic bodies at 10 uM after 24 hrs by phase contrast microscopic analysis
HeLa [11] = experiment: Induction of autophagy in human HeLa cells in presence of NAC by MDC staining-based flow cytometry
HeLa [12] = experiment: Induction of apoptosis in human HeLa cells assessed as increase in subG0/G1 ratio preincubated with 3MA for 1 hr followed by compound treatment at 10 uM for 24 hrs by PI staining-based flow cytometry
HeLa [13] = experiment: Upregulation of FasL in human HeLa cells at 5 to 20 uM after 24 hrs by Western blot analysis
HeLa [14] = experiment: Induction of autophagy in human HeLa cells preincubated at 10 uM in presence of ZVAD for 24 hrs by MDC staining-based flow cytometry
HeLa [15] = experiment: Upregulation of beclin 1 in human HeLa cells at 5 to 20 uM after 24 hrs by Western blot analysis
HeLa [16] = experiment: Induction of apoptosis in human HeLa cells assessed as increase in subG0/G1 ratio at 10 uM after 24 hrs in presence of ZVAD by PI staining-based flow cytometry
HeLa [17] = experiment: Induction of apoptosis in human HeLa cells assessed as increase in cytochrome c release from mitochondria to cytosol at 5 to 20 uM after 24 hrs by Western blot analysis
HeLa [18] = experiment: Upregulation of Fas in human HeLa cells at 5 to 20 uM after 24 hrs by Western blot analysis
HeLa [19] = experiment: Induction of apoptosis in human HeLa cells assessed as increase in Bax/Bcl-2 ratio at 5 to 20 uM after 24 hrs by Western blot analysis
HeLa [20] = experiment: Cytotoxicity against human HeLa cells assessed as inhibition of cell growth after 12 to 48 hrs by MTT assay
HeLa [21] = experiment: Induction of autophagy in human HeLa cells assessed as conversion of LC3 1 to LC3 2 at 5 to 20 uM after 24 hrs in presence of 3MA by Western blot analysis
HeLa [22] = experiment: Induction ROS generation in human HeLa cells in presence of 3MA by flow cytometry
HeLa [23] = experiment: Upregulation of caspase-8 in human HeLa cells at 5 to 20 uM after 24 hrs by Western blot analysis
HeLa [24] = experiment: Induction of ROS generation in human HeLa cells at up to 5 uM after 24 hrs by H2DCF-DA staining-based flow cytometry
HeLa [25] = experiment: Induction of autophagy in human HeLa cells assessed as conversion of LC3 1 to LC3 2 at 5 to 20 uM after 24 hrs by Western blot analysis
HeLa [26] = experiment: Induction of apoptosis in human HeLa cells assessed as increase in subG0/G1 ratio after 24 hrs by PI staining-based flow cytometry
HeLa [27] = experiment: Cytotoxicity against human HeLa cells assessed as inhibition of cell growth after 24 hrs in presence of 3MA by MTT assay
HeLa [28] = experiment: Induction of autophagy in human HeLa cells after 24 hrs by MDC staining-based flow cytometry
HeLa [29] = experiment: Induction of autophagy in human HeLa cells after 24 hrs in presence of 3MA by MDC staining-based flow cytometry
HeLa [30] = experiment: Induction of autophagy in human HeLa cells at 10 uM after 24 hrs by MDC staining-based fluorescence microscopic analysis
HeLa [31] = experiment: Upregulation of caspase-3 in human HeLa cells at 5 to 20 uM after 24 hrs by Western blot analysis
HeLa [32] = experiment: Upregulation of FADD in human HeLa cells at 5 to 20 uM after 24 hrs by Western blot analysis

In the case of `COc1ccc(-c2nc3cc(Oc4ccc5[nH]c(-c6ccc(OC)cc6)nc5c4)ccc3[nH]2)cc1`, the Activity (HeLa [1]) is reported as “inactive”, the Activity (HeLa [2]) is reported as “inactive” and the Activity (HeLa [3]) is reported as “Active”. The Activity (HeLa [4]) was “inactive”, the Activity (HeLa [5]) was “inactive” and the Activity (HeLa [6]) was “Active”. For the same compound, the Activity (HeLa [7]) was “Active”, the Activity (HeLa [8]) was “inactive” and the inhibition (HeLa [9]) was “Tde”. The Activity (HeLa [10]) was “Active”, the Activity (HeLa [11]) was “inactive” and the Activity (HeLa [12]) was “inactive”. The Activity (HeLa [13]) was “Active”, the Activity (HeLa [14]) was “Active” and the Activity (HeLa [15]) was “Active”. The Activity (HeLa [16]) was “inactive”, the Activity (HeLa [17]) was “Active” and the Activity (HeLa [18]) was “Active”. The Activity (HeLa [19]) was “Active”, the Activity (HeLa [20]) was “Dose-dependent effect” and the Activity (HeLa [21]) was “inactive”. The Activity (HeLa [22]) was “inactive”, the Activity (HeLa [23]) was “Active” and the Activity (HeLa [24]) was “Active”. The Activity (HeLa [25]) was “Active”, the Activity (HeLa [26]) was “Dose-dependent effect” and the Activity (HeLa [27]) was “inactive”. For the same compound, the Activity (HeLa [28]) was “Dose-dependent effect”, the Activity (HeLa [29]) was “inactive” and the Activity (HeLa [30]) was “Active”. For the same compound, the Activity (HeLa [31]) was “Active” and the Activity (HeLa [32]) was “Active”.
